# Assay results from patent publication US20120058500A1, “PLATELET AGGREGATION USING A MICROFLUIDICS DEVICE” (Monash University, priority 2009, published 2012).
# Positions of bridges follow the written chain, without caps; N, C: chain ends. Non-standard residues stand in square brackets, D forms with d. Residues, ends and D or L forms follow the SMILES beside them. hArg = N=C(N)NCCCC[C@H](N)C(=O)O; Mpa = O=C(O)CCS
# B1: c7E3 Fab: anti-integrin αIIbβ3 ab c7E3, used to block the platelet integrin αIIbβ3 (antibody, chains of the INN, looked up, V domains shown)
# VH: EVQLQQSGTVLARPGASVKMSCEASGYTFTNYWMHWVKQRPGQGLEWIGAIYPGNSDTSYIQKFKGKAKLTAVTSTTSVYMELSSLTNEDSAVYYCTLYDGYYVFAYWGQGTLVTVSA
# VL: EIVLTQSPVTLSVTPGDSVSLSCRASRDISNNLHWFQQTSHESPRLLIKYASQSMSGIPSRFSGSGSGTDFTLSINSVETEDFGMYFCQQTNSWPYTFGGGTKLEIK
# modifications: Fab
# Legend:
# [1] = system: platelet aggregation in human whole blood; assay: Anti-platelet inhibitor effects in microchannel, c85 g30 e85 100-100 μm format; type: cell-based; details: 10 mins pre-treatment, hirudin anti-coagulated whole blood, FIG. 22
# Procedure: (§1) Blood samples from subjects were taken via venisection of the antecubital vein using a 10 ml syringe fitted with a 19 guage needle containing 800 U/ml hirudin as anticoagulant.
# (§2) Blood perfusion studies through the device were carried out using hiridin (800 U/ml) anticoagulated whole blood taken from consenting human donors. Whole blood samples were incubated at 37° C. for 10 minutes with the lipophylic membrane dye DiOC6 (1 μg/ml) or DiICl2 (1 μg/ml) to allow the cells to be more readily visualised through the device.
# The micro-geometry device used in the present example has a contraction angle (θc) of 85°, an expansion angle (θe) of 85°, a gap width of 30 μm, a gap length of 15 μm and channel entry and exit width of 100 μm (c85 g30 e85 100-100 μm format).
# The following anti-platelet drugs were used either alone or in combination: • 1. Hirudin: Human whole blood anti-coagulated with Hirudin (800 U/ml) as a control. • 2. Hirudin+MRS: Human (hirudin anti-coagulated) whole blood pre-treated for 10 mins with 100 μM of the P2Y1 adenosine-5′-diphosphate (ADP) antagonist N6-methyl-2′-deoxyadenosine-3′,5′-bisphosphate (MRS2179). • 3. Hirudin+2Me: Human (hirudin anti-coagulate) whole blood pre-treated for 10 mins with 10 μM of the P2Y12 (ADP) antagonist 2-methylthio-AMP (2MesAMP). • 4. […]
# [2] = system: platelet aggregation in human blood; details: treated samples versus normal samples, specific microchannel geometries
# Source text: It will be further appreciated that the device and method of the invention can be used to assay the effectiveness of particular drugs or substances.
# [3] = system: platelet aggregation in whole blood; assay: Real-time epi-fluorescence imaging of DiOC6 labeled whole blood perfusion through the c60g20e60 microchannel; type: cell-based, human; details: 20 μg/ml; blood also pre-treated with apyrase, MRS2179, 2-MeSAMP, Indomethacin, hirudin; 16 μL/min, input strain rate 1,800 s-1
# Procedure: as §1, §2
# FIG. 20a represents real-time epi-fluorescence imaging of DiOC6 labeled whole blood perfusion at a constant flow rate of 16 μL/min (input strain rate=1,800 s−1) through the c60g20e60 geometric format over a 10 min timeframe, following pre-treatment for 10 minutes with the platelet inhibitors apyrase (0.02 U/ml), N6-methyl-2′-deoxyadenosine-3′,5′-bisphosphate (MRS2179 at 100 μM) and 2-methylthio-AMP (2-MeSAMP at 10 μM) to block ADP; Indomethacin (10 μM) to block TXA2; and hirudin (800 U/ml) to block thrombin. […] To investigate the platelet adhesion receptors mediating the aggregation response, whole blood samples were pretreated with the anti-integrin αIIbβ3 ab c7E3 (20 μg/ml) to block the platelet integrin αIIbβ3 or the anti-GPIb IgG Alma12 (50 μg/ml) to block platelet GPIb/V/IX engagement of VWF.
# [4] = system: platelet aggregation in hirudin-anticoagulated whole blood; assay: Whole blood perfusion through step geometry micro-shear gradient device (c90 g10 e60 100-700 μm format), platelet aggregation traces; type: cell-based, human; details: whole blood treated 10 minutes with 30 μg/ml prior to perfusion; input shear rate 1,800 s^-1; FIG. 11c
# Procedure: as §1, §2
# FIG. 11a is a representative micrograph (40× magnification) sequence of human (hirudin anti-coagulated) blood perfusion through a micro-shear gradient device consisting of an in-flow (entry) width of 100 μm, a contraction angle (θc) of 90°, a gap height of 10 μm, an expansion angle (θe)) of 60°, and an expansion/exit width of 700 μm. The grey arrow denotes the point of initial aggregation [t=12 sec], the black arrow designates the limit of thrombus growth in the expansion zone (representative of n=3 experiments).
# FIG. 11c comprises representative aggregation traces showing the response of whole blood perfusion through the PDMS microchannel device depicted in FIG. 11a. […]
molecule,measurement,setting,value
"CSc1nc(N)c2ncn([C@@H]3O[C@H](COP(=O)(O)O)[C@@H](O)[C@H]3O)c2n1 [inhibitor of the P2Y12 (ADP) receptor, 2-methylthio-AMP]",reduction in overall aggregation in the device,[1]; 10 μM,50%
"CNc1ncnc2c1ncn2[C@H]1C[C@H](OP(=O)(O)O)[C@@H](COP(=O)(O)O)O1 [MRS, N6-methyl-2′-deoxyadenosine-3′,5′-bisphosphate]",effect on the aggregation profile in the device,"[1]; 100 μM, compared with the P2Y12 inhibitor",much more marked effect
N=C(N)NCCCC[C@@H]1NC(=O)CCSSC[C@@H](C(N)=O)NC(=O)[C@@H]2CCCN2C(=O)[C@H](Cc2c[nH]c3ccccc23)NC(=O)[C@H](CC(=O)O)NC(=O)CNC1=O [integrilin] ([Mpa][hArg]GDWPC-NH2; disulfide 1-7),platelet aggregation profile versus normal samples,[2],different platelet aggregation profile
B1,platelet aggregation within the c60g20e60 geometry,[3],completely inhibited
same,initial recruitment at the stenosis apex,[4],markedly delayed
same,overall aggregation,[4],suppressed
